Results reported in paper PMC7918733, “Biological Profiling of Semisynthetic C19-Functionalized Ferruginol and Sugiol Analogues” (Antibiotics, 2021).

Experiments:
[1] = system: HBL-100 (Breast); test: Antiproliferative SRB assay; type: cell-based; conditions: Homo sapiens, mean ± SD of at least two experiments
Experimental: (§1) Cells, cultures and the activity test of abietane analogs followed reported methods. The SRB assay was performed as previously described, and the antiproliferative activity was given as GI50 values, which were calculated according to NCI formulas.

[2] = system: T-47D (Breast); test: Antiproliferative SRB assay; type: cell-based; conditions: Homo sapiens, T47D, mean ± SD of at least two experiments
Experimental: as §1

[3] = system: HeLa (Cervix); test: Antiproliferative SRB assay; type: cell-based; conditions: Homo sapiens, mean ± SD of at least two experiments
Experimental: as §1

[4] = target: GABAA receptor subtype (α1β2γ2S) (Homo sapiens, UniProt P14867+P18507+P47870); test: Two-microelectrode voltage-clamp in Xenopus laevis oocytes; conditions: for activation at 10 µM: read-out: IGABA Potentiation of 10 µM (%); for activation at 100 µM: read-out: IGABA Potentiation of 100 µM (%)
Experimental: All molecules were tested at concentrations of 10, 100 μM and compared with dehydroabietic acid (DHA) (3) as a reference [16].

[5] = system: L. amazonensis promastigotes; test: Antileishmanial in vitro promastigote assay; conditions: Leishmania amazonensis, read-out: L. amazonensis IC50 ± SD
Experimental: (§3) The compounds were additionally studied in a panel of mammalian cell lines to determine cytotoxicity.
(§4) The parasites, culture procedure and the activity of functionalized abietane analogs on Leishmania promastigotes were performed according to the method previously reported by us [28], while the intracellular amastigote assay was performed on L. amazonensis and L. infantum according to the fluorometric test [29]. The J774 cell culture and the cytotoxicity assay was carried out according to our previously described method [30].

[6] = system: P. falciparum 3D7 strain; test: Antiplasmodial DNA stain-based growth assay; type: cell-based; conditions: Plasmodium falciparum, 3D7; chloroquine-sensitive strain; 72 h incubation; read-out: P. falciparum 3D7 EC50
Experimental: (§2) Assays were performed by using previously described DNA stain-based assay and methods, including cytotoxicity assays.

[7] = system: P. falciparum K1 strain; test: Antiplasmodial DNA stain-based growth assay; type: cell-based; conditions: Plasmodium falciparum, K1; chloroquine-resistant strain; 72 h incubation; read-out: P. falciparum K1 EC50
Experimental: as §2

[8] = system: L. guyanensis promastigotes; test: Antileishmanial in vitro promastigote assay; conditions: Leishmania guyanensis, read-out: L. guyanensis IC50 ± SD
Experimental: as §3, §4

[9] = system: L. infantum promastigotes; test: Antileishmanial in vitro promastigote assay; conditions: Leishmania infantum, read-out: L. infantum IC50 ± SD
Experimental: as §3, §4

[10] = system: L. amazonensis amastigotes; test: Intracellular amastigote assay (fluorometric test); type: cell-based; conditions: Leishmania amazonensis, read-out: L. amazonensis IC50 ± SD
[11] = system: A549 (Lung); test: Antiproliferative SRB assay; type: cell-based, human; conditions: Homo sapiens, A549, mean ± SD of at least two experiments
Experimental: as §1

[12] = system: SW1573 (Lung); test: Antiproliferative SRB assay; type: cell-based, human; conditions: Homo sapiens, SW1573, mean ± SD of at least two experiments
Experimental: as §1

[13] = system: WiDr (Colon); test: Antiproliferative SRB assay; type: cell-based, human; conditions: Homo sapiens, WiDr, mean ± SD of at least two experiments
Experimental: as §1

[14] = system: HepG2; test: Cytotoxicity on mammalian cell lines; type: cell-based; conditions: Homo sapiens, HepG2; read-out: HepG2 EC50
Experimental: as §2

[15] = system: HEK293; test: Cytotoxicity on mammalian cell lines; type: cell-based; conditions: Homo sapiens, HEK293; read-out: HEK293 EC50
Experimental: as §2

[16] = system: RAJI; test: Cytotoxicity on mammalian cell lines; type: cell-based; conditions: Homo sapiens, read-out: RAJI EC50
Experimental: as §2

[17] = system: BJ; test: Cytotoxicity on mammalian cell lines; type: cell-based; conditions: Homo sapiens, read-out: BJ EC50
Experimental: as §2

[18] = in vitro; conditions: mouse, Macrophages J774 CC50
Experimental: as §3, §4

[19] = system: L. infantum amastigotes; test: Intracellular amastigote assay (fluorometric test); type: cell-based; conditions: Leishmania infantum, read-out: L. infantum IC50 ± SD
[20] = system: L. donovani promastigotes; test: Antileishmanial in vitro promastigote assay; conditions: Leishmania donovani, read-out: L. donovani IC50 ± SD
Experimental: as §3, §4

[21] = Cytotoxicity assay on J774 macrophages; conditions: mouse, Macrophages J774 CC50, 50% reduction of cell viability
Experimental: as §3, §4

[22] = system: Macrophages J774; conditions: mouse
Experimental: as §3, §4

[23] = system: Leishmania promastigotes (L. donovani, L. infantum, L. guyanensis, L. amazonensis); test: Antipromastigote activity over the tested Leishmania spp.; conditions: read-out: antipromastigote activity IC50 values (range over species)
Experimental: The parasites, culture procedure and the activity of functionalized abietane analogs on Leishmania promastigotes were performed according to the method previously reported by us [28], while the intracellular amastigote assay was performed on L. amazonensis and L. infantum according to the fluorometric test [29].

Chain of GABAA receptor subtype (α1β2γ2S) (P14867 28-456): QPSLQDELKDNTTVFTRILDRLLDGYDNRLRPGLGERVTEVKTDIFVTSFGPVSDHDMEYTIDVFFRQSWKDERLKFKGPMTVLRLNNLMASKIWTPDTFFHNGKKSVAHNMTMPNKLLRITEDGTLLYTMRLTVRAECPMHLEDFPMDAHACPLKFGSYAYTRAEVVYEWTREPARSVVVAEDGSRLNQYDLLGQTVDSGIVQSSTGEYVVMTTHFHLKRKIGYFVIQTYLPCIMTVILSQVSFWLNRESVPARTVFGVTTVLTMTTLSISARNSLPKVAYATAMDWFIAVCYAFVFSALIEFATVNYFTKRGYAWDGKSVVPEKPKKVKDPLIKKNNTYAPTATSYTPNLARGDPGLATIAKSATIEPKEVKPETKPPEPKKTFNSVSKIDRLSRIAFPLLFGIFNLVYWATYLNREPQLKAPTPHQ
Chain of GABAA receptor subtype (α1β2γ2S) (P47870 26-512): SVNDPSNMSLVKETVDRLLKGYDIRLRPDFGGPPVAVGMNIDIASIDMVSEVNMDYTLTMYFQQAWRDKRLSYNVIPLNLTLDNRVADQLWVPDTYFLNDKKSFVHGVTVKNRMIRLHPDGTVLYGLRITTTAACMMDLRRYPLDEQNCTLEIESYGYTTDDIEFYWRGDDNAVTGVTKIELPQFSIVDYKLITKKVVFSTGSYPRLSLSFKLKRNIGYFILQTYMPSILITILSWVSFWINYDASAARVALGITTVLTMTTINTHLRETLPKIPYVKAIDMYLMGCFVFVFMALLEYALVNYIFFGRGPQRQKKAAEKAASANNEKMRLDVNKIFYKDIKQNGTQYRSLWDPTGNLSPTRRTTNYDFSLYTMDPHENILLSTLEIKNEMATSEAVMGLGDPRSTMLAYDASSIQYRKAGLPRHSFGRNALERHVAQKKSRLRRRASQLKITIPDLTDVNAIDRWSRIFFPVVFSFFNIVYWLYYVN
Chain of GABAA receptor subtype (α1β2γ2S) (P18507 40-467 isoform P18507-1 limits assumed): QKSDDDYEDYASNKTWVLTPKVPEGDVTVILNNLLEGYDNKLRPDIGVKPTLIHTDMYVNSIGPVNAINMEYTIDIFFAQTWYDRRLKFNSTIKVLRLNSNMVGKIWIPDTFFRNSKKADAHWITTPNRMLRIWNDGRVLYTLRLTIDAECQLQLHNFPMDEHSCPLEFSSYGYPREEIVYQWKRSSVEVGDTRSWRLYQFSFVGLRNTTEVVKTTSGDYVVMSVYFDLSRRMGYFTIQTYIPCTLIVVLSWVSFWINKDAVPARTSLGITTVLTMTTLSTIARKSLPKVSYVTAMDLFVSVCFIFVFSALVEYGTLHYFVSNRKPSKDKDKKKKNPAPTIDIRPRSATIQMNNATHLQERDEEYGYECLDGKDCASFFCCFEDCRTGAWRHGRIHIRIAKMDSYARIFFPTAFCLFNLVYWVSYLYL

CC(C)c1cc2c(cc1O)C1(C)CCCC(C)(C(=O)O)C1CC2=O (single isomer, unassigned; (+)) [Compound 8a, (+)-4-epi-liquiditerpenoic acid A]
GI50 [1]: 39 ± 14 µM | GI50 [2]: 31 ± 12 µM | GI50 [3]: 12 ± 3.8 µM | activation at 10 µM [4]: -8 ± 1% | activation at 100 µM [4]: -8 ± 3% | IC50 [5]: 94.5 ± 6.5 µM | EC50 [6]: > 15 µM | EC50 [7]: > 15 µM | IC50 [8]: 3 ± 0.9 µM | IC50 [9]: 100 ± 20 µM | IC50 [10]: 21.4 ± 2.3 µM | GI50 [11]: 12 ± 2.9 µM | GI50 [12]: 41 ± 17 µM | GI50 [13]: 33 ± 15 µM | EC50 [14]: > 25 µM | EC50 [15]: > 25 µM | EC50 [16]: > 25 µM | EC50 [17]: > 25 µM | CC50 [18]: > 200 µM | IC50 [19]: 20.1 ± 2 µM | IC50 [20]: 84.4 ± 31.6 µM

COC(=O)[C@@]1(C)CCC[C@]2(C)c3cc(C(C)=O)c(C(C)C)cc3CC[C@@H]12 [Compound 9]
GI50 [1]: 14 ± 2.1 µM | GI50 [2]: 14 ± 1 µM | GI50 [3]: 15 ± 4.1 µM | IC50 [5]: 14.1 ± 1.4 µM | EC50 [6]: 12.8 µM | EC50 [7]: 12.6 µM | IC50 [8]: 18.7 ± 0.8 µM | IC50 [9]: 20.3 ± 4.6 µM | IC50 [10]: 30.3 ± 1.2 µM | GI50 [11]: 15 ± 7 µM | GI50 [12]: 25 ± 11 µM | GI50 [13]: 15 ± 2.1 µM | EC50 [14]: > 25 µM | EC50 [15]: > 25 µM | EC50 [16]: > 25 µM | EC50 [17]: > 25 µM | CC50 [21]: > 200 µM | IC50 [19]: 22.7 ± 5.9 µM | IC50 [20]: 8.9 ± 2 µM

COC(=O)[C@@]1(C)CCC[C@]2(C)c3cc(OC(C)=O)c(C(C)C)cc3CC[C@@H]12 [Compound 10]
GI50 [1]: 11 ± 2.3 µM | GI50 [2]: 4.2 ± 1.5 µM | GI50 [3]: 7 ± 1.7 µM | IC50 [5]: 7.4 ± 0.6 µM | EC50 [6]: > 15 µM | EC50 [7]: 3.1 µM | IC50 [9]: 3.6 ± 0.6 µM | GI50 [11]: 6.5 ± 2.7 µM | GI50 [12]: 18 ± 3.4 µM | GI50 [13]: 4.5 ± 1.4 µM | EC50 [14]: > 25 µM | EC50 [15]: > 25 µM | EC50 [16]: > 25 µM | EC50 [17]: > 25 µM | CC50 [21]: 30.2 ± 2 µM | IC50 [20]: 3.9 ± 0.1 µM

COC(=O)[C@@]1(C)CCC[C@]2(C)c3cc(OC(C)=O)c(C(C)C)cc3C(=O)C[C@@H]12 [Compound 11]
GI50 [1]: 7.4 ± 0.7 µM | GI50 [2]: 6.1 ± 1.9 µM | GI50 [3]: 5.6 ± 2.9 µM | activation at 10 µM [4]: 1 ± 3% | activation at 100 µM [4]: 75 ± 4% | EC50 [6]: 7.1 µM | EC50 [7]: 5.7 µM | GI50 [11]: 3.1 ± 0.9 µM | GI50 [12]: 17 ± 7.5 µM | GI50 [13]: 5.2 ± 3.1 µM | EC50 [14]: > 25 µM | EC50 [15]: > 25 µM | EC50 [16]: > 25 µM | EC50 [17]: > 25 µM | CC50 [21]: 45.8 ± 5.6 µM

COC(=O)[C@@]1(C)CCC[C@]2(C)c3cc(O)c(C(C)C)cc3CC[C@@H]12 [Compound 12]
GI50 [1]: 11 ± 3 µM | GI50 [2]: 4.2 ± 1.3 µM | GI50 [3]: 5.1 ± 1.9 µM | activation at 10 µM [4]: 1 ± 3% | activation at 100 µM [4]: 65 ± 6% | EC50 [6]: 4.7 µM | EC50 [7]: 2.1 µM | GI50 [11]: 2.3 ± 1.5 µM | GI50 [12]: 12 ± 4.1 µM | GI50 [13]: 3.7 ± 1.9 µM | EC50 [14]: > 25 µM | EC50 [15]: > 25 µM | EC50 [16]: > 25 µM | EC50 [17]: > 25 µM | CC50 [21]: 65.4 ± 7 µM

CC(C)c1cc2c(cc1O)[C@@]1(C)CCC[C@](C)(C(=O)O)[C@@H]1CC2 [Compound 13, lambertic acid]
GI50 [1]: 34 ± 4.2 µM | GI50 [2]: 41 ± 8.4 µM | GI50 [3]: 29 ± 13 µM | activation at 10 µM [4]: 3 ± 3% | activation at 100 µM [4]: 71 ± 23% | IC50 [5]: 51.5 ± 3.2 µM | EC50 [6]: > 15 µM | EC50 [7]: > 15 µM | IC50 [8]: 17.8 ± 1.2 µM | IC50 [9]: 29.1 ± 1.5 µM | IC50 [10]: 8.8 ± 1.6 µM | GI50 [11]: 17 ± 6.1 µM | GI50 [12]: 32 ± 8.9 µM | GI50 [13]: 59 ± 7.3 µM | EC50 [14]: > 25 µM | EC50 [15]: > 25 µM | EC50 [16]: > 25 µM | EC50 [17]: > 25 µM | CC50 [18]: > 200 µM | CC50 [22]: 217 ± 34 µM | fold less cytotoxic than 12-hydroxydehydroabietic acid [22]: 2.5 fold | IC50 [23]: 12.8 to 51.5 µM | IC50 [19]: 19.2 ± 3.8 µM | IC50 [20]: 12.8 ± 2.8 µM

CC(C)c1cc2c(cc1O)[C@@]1(C)CCC[C@](C)(CO)[C@@H]1CC2=O [Compound 15, 19-hydroxysugiol]
GI50 [1]: 17 ± 1.7 µM | GI50 [2]: 19 ± 1.1 µM | GI50 [3]: 15 ± 1.1 µM | IGABA Potentiation of 100 µM (%) ([4]; 100 µM, α1β2γ2S receptors): 238 ± 28% | activation at 10 µM [4]: 30 ± 14% | activation at 100 µM [4]: 238% | EC50 [6]: > 15 µM | EC50 [7]: 9.4 µM | GI50 [11]: 10 ± 0.3 µM | GI50 [12]: 19 ± 3.3 µM | GI50 [13]: 17 ± 5 µM | EC50 [14]: > 25 µM | EC50 [15]: > 25 µM | EC50 [16]: > 25 µM | EC50 [17]: > 25 µM | CC50 [18]: 50.1 ± 2.4 µM

COC(=O)[C@@]1(C)CCC[C@]2(C)c3cc(O)c(C(C)C)cc3C(=O)C[C@@H]12 [Compound 16]
GI50 [1]: 65 ± 4.9 µM | GI50 [2]: 47 ± 25 µM | GI50 [3]: 18 ± 1.7 µM | activation at 10 µM [4]: 5 ± 4% | activation at 100 µM [4]: 104 ± 26% | IC50 [5]: 8.5 ± 0.3 µM | EC50 [6]: 4.8 µM | EC50 [7]: 3.9 µM | IC50 [8]: 5.6 ± 0.6 µM | IC50 [9]: 10.1 ± 1.4 µM | IC50 [10]: 16.1 ± 2 µM | GI50 [11]: 11 ± 6.9 µM | GI50 [12]: > 100 µM | GI50 [13]: 6.1 ± 4.2 µM | EC50 [14]: > 25 µM | EC50 [15]: > 25 µM | EC50 [16]: > 25 µM | EC50 [17]: > 25 µM | CC50 [18]: > 200 µM | IC50 [19]: 16.5 ± 4.6 µM | IC50 [20]: 11.8 ± 0.8 µM

CCCCCCCCCCCCCCCCOP(=O)([O-])OCC[N+](C)(C)C [Miltefosine, reference compound]
IC50 [5]: 47.7 ± 5 µM | IC50 [8]: 18.2 ± 0.6 µM | IC50 [9]: 3.4 ± 0.6 µM | IC50 [10]: 16.5 ± 1.9 µM | CC50 [18]: 136 ± 1.4 µM | IC50 [19]: 58.1 ± 4.4 µM | IC50 [20]: 0.15 ± 0.02 µM
